The values that follow come from US20100317711A1, “STEM-LIKE CELLS AND METHOD FOR REPROGRAMMING ADULT MAMMALIAN SOMATIC CELLS” (GLIAMED, INC., priority 2009, published 2010).

Assay [1] concerns normal human dermal fibroblasts (NHDF). Put plainly: Oct4 immunostaining of normal human dermal fibroblasts cultured with GM1485. In kind it is cell-based. The following applies: GM1485 100 μM in serum free medium, 72 hours, versus vehicle. As for the experimental part: The fibroblasts were harvested from a skin sample was taken from the face of a human cadaver. The skin sample was cut into small fragments and digested with dispase overnight (4° C.). Thereafter the epidermis was separated from the dermis. The dermis fragments were further digested with collagenase for approximately 1 h at 37° C., and then diluted with culture medium and filtered to obtain a suspension of dermal cells. The dermal cells were next purified via magnetic bead separation to yield normal human dermal fibroblasts (“NHDFs”). Second passage normal human dermal fibroblasts (NHDF) were seeded onto poly-D-lysine coated coverslips within wells of 24-well plates, at a density of 4,000 cells/well and cultured overnight in NHDF growth medium from PromoCell GmbH (NHDF GM) consisting of: The NHDF GM was aspirated, the wells were rinsed twice with Hank's balanced salt solution (HBSS), and 400 μL of serum free medium (SFM) supplemented with GM1485 at a final concentration of 100 μM or the vehicle the drug vehicle (SFM). […]

The next assay has as its system human keratinocytes. In words: In vitro treatment of human keratinocytes with GM1485 with or without rhIGF2 (Oct4, Sox2). The format is cell-based.
The next assay deals with adult rats. Put plainly: Cardiac ischemic injury (left anterior descending artery ligation) in adult rats. Particulars: 5 mg/kg daily intraperitoneal, 30 days after infarction. In kind it is in vivo, rat. As for the experimental part: Adult rats underwent thoracotomy, the heart was isolated, the left anterior descending artery was identified and ligated at its branch point from the left circumflex artery, causing a massive infarction of the left ventricle. The chest was closed, lungs reinflated and the skin closed. The animals began a 30 day regimen of daily intraperitoneal injections of either GM1485 at 5 mg/kg or the saline vehicle in which it was dissolved. On the 30th day after infarction the animals were sacrificed, the hearts harvested, fixed and cryosectioned. […] The histology of the vehicle treated tissue is consistent with an extensive myocardial infarction. […] FIG. 5 is a 2×2 matrix of photomicrographs of cardiac tissue 30 days after infarction and treatment with either vehicle in the top two slides or GM1485 in the bottom two slides. The left upper and lower sections were stained with an αOct4 antiserum and the right upper and lower sections were stained with αSox2 (mAb R&D Systems). Only the GM1485 treated cardiac tissue expresses Oct4 and/or Sox2.

Assay [2] has as its system murine fibroblasts, 3T3 cells. In words: Oct4 immunostaining of murine fibroblasts (3T3 cells) cultured with GM1485. The format is cell-based. The following applies: GM1485 versus vehicle, no neural induction. As for the experimental part:
In another experiment, the murine fibroblasts, 3T3 cells were cultured in accordance with the protocol described, supra., for Example 1, except that they were not entered into a neural induction environment. Rather, the murine fibroblasts were fixed and stained with rabbit αOct4 antibody. The photomicrographs in FIG. 3 were taken using bright field microscopy using a 20× objective, except the inset, which is a 20× phase contrast photomicrograph of the same microscopic field into which it is set. The arrows point to the corresponding nuclei in the bright field and phase micrographs of the vehicle treated murine fibroblasts. Only the GM1485 treated murine fibroblasts express Oct4.

The test system of a further assay is IGF2 expression. Put plainly: cDNA array analysis of gene expression after initiating reprogramming with GM1485. In kind it is cell-based, human. Particulars: 48 hours after initiating reprogramming, GM1485 versus vehicle treated cells. As for the experimental part:
It has previously been shown that RIL treatment alters gene expression and that the biologic effects of these compounds are dependent upon cell-cell signaling. Included among these changes are alterations in the secretion of soluble factors (Lowry W E et al. 2008, Proc Natl Acad Sci USA 105, 2883-2888). To begin to explore what changes in gene expression might play a role GM1485-mediated iPS induction, RNA for cDNA array analysis was harvested from GM1485 and vehicle treated cells 48 hours after initiating reprogramming with GM1485.

The next assay deals with human fibroblasts. In words: Reprogramming of GM1485-treated human fibroblasts under neural inducing conditions (GFAP, TuJ1 staining). In kind it is cell-based. The following applies: GM1485 100 μM, then FGF2 72 hours and rhEGF 7 days. As for the experimental part: On day one of this experiment, the human fibroblasts, were plated, grown overnight as described above and then changed to DMEM supplemented with 10% heat inactivated FCS, 1% DMEM non-essential amino acids (Gibco), penicillin/streptomycin/glutamine (Gemini Bioproducts) and amphotericin B with or without GM1485 for 1 day, and reduced the concentration of serum over an 16 h period until the serum was absent, however the concentration of GM1485 was maintained at 100 μM throughout. The cells were maintained in SFM+/−GM1485 and 10 ng/mL FGF2 for 72 hours. On day 4 of the experiment, the culture environment was changed to 0.5 mL of a SFM without FGF2, but with rhEGF at 20 ng/ml. The cells were maintained in SFM supplemented with 20 ng/ml rhEGF for an additional 7 days. On the 11th day all the cells were fixed by aspirating the medium from the wells and replacing it with 0.5 mL/well of 4% paraformaldehyde in phosphate buffered saline (“PBS”) for 15 minutes at room temperature. Thereafter, the cells were briefly rinsed with PBS at room temperature, then washed with PBS at room temperature in three cycles of 5 minutes each. […] FIG. 2 is comprised of a set of 4 fluorescence photomicrographs, shown in inverted mode to allow full visualization in grayscale. […]

The test system of assay [3] is Adult, facial skin-derived human fibroblasts. In words: IGF2 blockade during GM1485-mediated iPS induction and neural re-differentiation of human fibroblasts. The format is cell-based. As for the experimental part: To test the role of IGF2 in GM1485-mediated iPS induction, an α-IGF2 blocking antibody was included at the onset of induction and maintained in culture for three days.
Adult, facial skin-derived human fibroblasts were cultured in the presence of 100 μM GM1485 in chemically defined medium for 72 hours with (b) or without (a) 40 ng/ml mAb IGF2, a neutralizing antibody (Abcam, Inc.). One set of cells was fixed and stained with rabbit αOct4 (a and b). IGF2 signaling is required of the reprogramming from somatic cells to iPS cells. On the chance that the cells maintained plasticity, cells were continued in culture, but they were switched to culture conditions under which ES cells differentiate along a neural pathway. In specific, the cells were rinsed in PBS and cultured with chemically defined medium supplemented with rhFGF2, 10 ng/ml for an additional 72 hours, after which the cells were rinsed in PBS and the culture medium was replaced with chemically defined medium supplemented with rhEGF, 20 ng/ml. After seven days the cells were rinsed in PBS, fixed in 4% paraformaldehyde in PBS, and processed for immunocytochemistry with TuJ1, a mAb that recognizes neuron-specific βIII-Tubulin.

`CCC(C)(C)C(=O)C(=O)N1CCC[C@H]1C(=O)O` [GM1485, (2S)-1-(3,3-dimethyl-1,2-dioxopentyl)-2-pyrrolidinecarboxylic acid]: the “Oct4 expression (anti-OCT 3/4 immunostaining)” value in assay [1] is “upregulation of Oct4”. For the same compound, the iPS induction result with human keratinocytes (GM1485 alone, in vitro) is reported as “has not previously resulted in iPS induction”. Moreover, in the assay with human keratinocytes (GM1485 with rhIGF2 included in cultures), the “Oct4 and Sox2 expression” value is “upregulate Oct4 and Sox2 with the same kinetics as treated fibroblasts”. Further, the “histology of heart tissue (H&E stained section)” value in the assay on adult rats (versus saline vehicle) is listed as “consistent with normal myocardium”. Further, the “Oct4 and Sox2 expression in cardiac tissue” value with adult rats (versus vehicle) is “Oct4 and Sox2 are upregulated”. The “Oct4 expression (rabbit αOct4 staining)” value in assay [2] is recorded as “express Oct4”. In the assay with IGF2 expression, the IGF2 expression increase is recorded as 550% and the “number of genes upregulated by 2 fold or more” value was “Over 100”. In the assay on human fibroblasts, the “reprogramming of fibroblasts to neurons or astrocytes (GFAP, TuJ1)” value is “acquire the ability to be reprogrammed to an alternative cell fate”. Further, the “differentiation to neuronal cells (TuJ1, βIII-Tubulin)” value in assay [3] (100 μM GM1485 72 hours without IGF2 blockade, then rhFGF2 72 hours, rhEGF seven days) is “differentiated to neuronal cells”. In assay [3] (100 μM GM1485, 72 hours, without IGF2 blockade), the “reprogramming to iPS cells (rabbit αOct4 staining)” value was “reprogrammed”.
